The source made the active and inactive calls.
How the values were obtained:
[1] = test system: Streptococcus sp. 'group A'; assay: growth inhibition of control SK(-) GAS strain, dose response, counter-screen for streptokinase expression inhibitor project, luminescence, kanamycin, BacTiterGlo, confirmation (AID 1900); format: functional, organism-based
[2] = cytotoxicity toward NIH3T3 fibroblasts, dose response, counter-screen, cell-based, ATP luminescence, mouse fibroblasts (AID 2010); format: functional;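 also: cells exposed to compound for about 90 hours before reading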
[3] = test system: Streptococcus; assay: Group A Streptococcus viability loss, dose response, counter-screen for streptokinase expression inhibitor project, luminescence, BacTiterGlo (AID 1915); format: functional, organism-based;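 also: potency for reduction of bacterial viability or growth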
[4] = biological target: Beta-galactosidase (Escherichia coli, UniProt Q8VNN2); assay: beta-galactosidase enzyme inhibitors and activators, dose response, artefact control for CCR6 antagonist project, biochemical, E. coli enzyme, set 3 (AID 504712); format: functional
[5] = test system: H9c2; assay: cells; format: functional, cell-based; conditions: Rattus norvegicus, H9c2, Myocardium;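 also: confirmatory concentration-response retest of ultra-high-throughput screening hits for modulation of myocardial damage; cell death induced by hydrogen peroxide oxidative stress; compound pretreatment for 60 min then peroxide exposure for 2 h; potency is for protecting the cells against peroxide damage rather than for killing them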
[6] = inhibitors of intracellular T. cruzi replication, confirmation, NIH3T3 host cells, beta-gal luminescence (AID 2044); format: functional, cell-based;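 also: intracellular parasites grown in NIH/3T3 mouse fibroblasts as host cells; luminescent beta-galactosidase reporter signal from transgenic T. cruzi replicating inside host cells; inhibitors lower the luminescence signal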
[7] = biological target: ORF 73 (Human herpesvirus 8, UniProt O40947); assay: inhibitors of C-LANA binding to LBS DNA, dose response, biochemical, fluorescence polarization, cherry-picked samples (AID 504725); set-up: species or system Human gammaherpesvirus 8;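 also: fluorescence polarization of a labeled DNA duplex reporting LANA DNA binding; potency is for inhibitors that block LANA binding to the DNA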
[8] = test system: Salmon testes DNA; assay: DNA intercalators displacing acridine orange, dose response, artefact control for KSHV LANA DNA-binding inhibitor project, biochemical, fluorescence polarization, cherry-picked samples, set 2 (AID 504727); set-up: species or system Salmonidae
[9] = biological target: T1, E3 ubiquitin-protein ligase XIAP (Homo sapiens, UniProt P98170); assay: XIAP antagonists, biochemical, IAP family, fluorescence polarization (AID 1018); format: functional
[10] = biological target: T1, E3 ubiquitin-protein ligase XIAP; assay: Counter Screen using XIAP-Bir3 for Chemical Antagonists of Bir1/2 domains of IAP-family anti-apoptotic proteins. [Related pubchem assays (depositor defined):AID1018, AID1449, AID1514, AID1638, AID1749, AID1750, AID488957, AID488963]
[11] = biological target: T2, Voltage-gated N-type calcium channel alpha-1B subunit/Amyloid beta A4 precursor protein-binding family A member 1 (Homo sapiens, UniProt Q00975+Q02410); format: protein assay
[12] = biological target: T2, Voltage-gated N-type calcium channel alpha-1B subunit/Amyloid beta A4 precursor protein-binding family A member 1; format: protein assay; remark: listed apart in the source
[13] = biological target: CAAX prenyl protease 2 (Saccharomyces cerevisiae S288c, UniProt Q03530); format: biochemical
[14] = biological target: Trypsin (Sus scrofa, UniProt P00761); assay: porcine trypsin inhibitors, dose response, selectivity assay for Rce1 protease inhibitor project, biochemical, quenched peptide fluorescence, cherry-pick (AID 488789)
[15] = biological target: NACHT, LRR and PYD domains-containing protein 1 (Homo sapiens, UniProt Q9C000); assay: NALP1 inhibitors in yeast, dose response, luminescent (AID 488860); format: functional
[16] = test system: Saccharomyces cerevisiae; assay: NALP1 inhibitor project selectivity study, Caspase-1/ASC signal blockade IC50 in S. cerevisiae (AID 488863); format: functional, organism-based
[17] = growth suppression of beta-catenin-knockout colon cells, dose response, cell-based, HCT116, human colon tumor (AID 1045); format: functional;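 also: HCT116 colon tumor cells with beta catenin knocked out; cells exposed to compound for 60 hours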
[18] = growth suppression of PTEN-null colon cells, dose response, cell-based, HCT116 PTEN knockout (AID 1047); format: functional;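 also: HCT116 colon tumor cells with PTEN knocked out; cells exposed to compound for 60 hours before readout; potency for loss of cell viability measured by luminescence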
[19] = biological target: T3, Microphthalmia-associated transcription factor (Homo sapiens, UniProt O75030); assay: TRPM1 promoter luciferase signal decrease, dose response, MITF inhibitor project, cell-based, SK-MEL-5, cherry-picked, set 3 (AID 493073); format: functional
T3 sequence (O75030 whole entry): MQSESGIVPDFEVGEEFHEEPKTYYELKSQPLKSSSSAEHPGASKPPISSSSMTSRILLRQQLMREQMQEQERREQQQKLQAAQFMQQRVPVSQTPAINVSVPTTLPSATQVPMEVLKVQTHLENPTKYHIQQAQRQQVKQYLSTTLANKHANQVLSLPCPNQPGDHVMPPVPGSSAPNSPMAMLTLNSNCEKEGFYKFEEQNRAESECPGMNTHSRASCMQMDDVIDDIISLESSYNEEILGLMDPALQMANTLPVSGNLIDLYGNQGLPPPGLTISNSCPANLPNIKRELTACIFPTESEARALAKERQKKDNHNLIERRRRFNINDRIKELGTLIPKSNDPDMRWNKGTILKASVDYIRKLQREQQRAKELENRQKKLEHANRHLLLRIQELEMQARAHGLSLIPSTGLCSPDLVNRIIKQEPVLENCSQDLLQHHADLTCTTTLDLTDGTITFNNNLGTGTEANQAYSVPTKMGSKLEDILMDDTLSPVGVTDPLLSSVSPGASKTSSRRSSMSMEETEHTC

[20] = biological target: G-protein coupled receptor 55 (Homo sapiens, UniProt Q9Y2T6); assay: GPR55 antagonists blocking LPI-driven arrestin recruitment, primary screen, imaging, U2OS, beta-arrestin-GFP, LPI agonist (AID 2013); format: functional;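 also: antagonist potency measured as reduced agonist-driven arrestin aggregation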
[21] = biological target: T4, Alkaline phosphatase, tissue-nonspecific isozyme (Homo sapiens, UniProt P05186); assay: human TNAP enzyme inhibitors, SAR follow-up, biochemical, luminescent, dose response (AID 1056)
T4 sequence (P05186 whole entry): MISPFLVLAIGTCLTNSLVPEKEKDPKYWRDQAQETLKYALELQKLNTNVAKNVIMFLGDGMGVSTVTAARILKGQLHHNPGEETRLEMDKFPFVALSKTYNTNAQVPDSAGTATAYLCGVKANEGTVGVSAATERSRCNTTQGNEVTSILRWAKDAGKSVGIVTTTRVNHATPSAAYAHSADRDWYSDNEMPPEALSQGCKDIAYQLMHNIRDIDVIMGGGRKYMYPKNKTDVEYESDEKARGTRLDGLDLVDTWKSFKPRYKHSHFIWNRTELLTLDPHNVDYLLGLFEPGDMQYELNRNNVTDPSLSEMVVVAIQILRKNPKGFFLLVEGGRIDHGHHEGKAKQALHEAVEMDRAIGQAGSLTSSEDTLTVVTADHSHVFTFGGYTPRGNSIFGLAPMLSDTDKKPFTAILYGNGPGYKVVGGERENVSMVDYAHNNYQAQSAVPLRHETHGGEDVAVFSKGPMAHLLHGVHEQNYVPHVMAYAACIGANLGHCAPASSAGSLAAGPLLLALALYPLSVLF

[22] = biological target: Alkaline phosphatase, placental type (Homo sapiens, UniProt P05187); assay: PLAP enzyme inhibitors, confirmation, biochemical, luminescence (AID 1512); format: functional
[23] = biological target: DNA dC->dU-editing enzyme APOBEC-3G (Homo sapiens, UniProt Q9HC16); assay: Dose Response confirmation of small molecule APOBEC3G DNA Deaminase Inhibitors via a fluorescence-based single-stranded DNA deaminase assay. [Related pubchem assays (depositor defined):AID493012, AID493028]; format: functional
[24] = biological target: Glucose-6-phosphate 1-dehydrogenase (Homo sapiens, UniProt P11413); assay: human G6PD enzyme inhibitors, dose response, selectivity assay for P. falciparum G6PD inhibitor project, biochemical, fluorescence (AID 504792); format: functional
[25] = inhibitors of SNCA 5'UTR-driven reporter translation, confirmation, H4 neuroglioma cells, luminescence (AID 1988); format: functional, cell-based
[26] = Luminescence Cell-Based Dose Response HTS to Identify Inhibitors of 5'UTR Stem-Loop Driven Prion Protein mRNA Translation in H4 Neuroglioblastoma Cells. [Related pubchem assays: 1827 (Project Summary), 1813 (Primary HTS)]; format: functional
[27] = Luminescence Cell-Based Dose Retest to Confirm Activators of 5'UTR Stem-Loop Driven Alpha-Synuclein mRNA Translation in H4 Neuroglioblastoma Cells. [Related pubchem assays (depositor defined):AID1813, AID1829]; format: functional
[28] = Luminescence Cell-Based Dose Confirmation HTS to Identify Inhibitors of 5'UTR Stem-Loop Driven Alpha-Synuclein mRNA Translation in H4 Neuroglioblastoma Cells. [Related pubchem assays: 1827 (Project Summary), 1813 (Primary HTS)]; format: functional
[29] = Luminescence Cell-Based Dose Response HTS to Identify Inhibitors of Luciferase Translation or Activity in H4-C Neuroglioblastoma Cells. [Related pubchem assays: 1813 (Primary HTS), 1827 (Project Summary)]; format: functional
[30] = inhibitors of firefly luciferase expression or activity, dose response, H4 neuroglioma cells, luminescence (AID 1990); format: functional, cell-based
[31] = Luminescence Cell-Based Dose Response HTS to Identify Activators of Luciferase Translation or Activity in H4-C Neuroglioblastoma Cells. [Related pubchem assays: 1829 (Project Summary), 1814 (Primary HTS)]; format: functional
[32] = test system: BJ; assay: cytotoxicity toward BJ-TERT fibroblasts, dose response, cell-based, RAS-independent, luminescence (AID 1933); format: functional; conditions: Homo sapiens
[33] = test system: BJ; assay: cells; format: functional, cell-based; conditions: Homo sapiens
[34] = test system: BJ; assay: cytotoxicity toward BJ-TERT-LT-ST fibroblasts, dose response, cell-based, RAS-independent, luminescence (AID 1935); format: functional; conditions: Homo sapiens;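 also: BJ fibroblasts immortalized with TERT plus LT and ST oncogenes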
[35] = test system: BJ; assay: cytotoxicity toward Ras-transformed BJeLR fibroblasts, dose response, cell-based, alamar blue fluorescence, cherrypicked samples (AID 2631); format: functional; conditions: Homo sapiens;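 also: confirmatory dose-response assay in RAS-dependent BJ fibroblasts engineered with TERT, LT and ST, with cytotoxicity read by fluorescence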
[36] = Luminescence Cell-Based Dose HTS Response to Identify Inhibitors of 5'UTR Stem-Loop Driven Prion Protein mRNA Translation in H4-C Neuroglioblastoma Cells. [Related pubchem assays (depositor defined):AID1814, AID1827]; format: functional
[37] = Luminescence Cell-Based Dose Response HTS to Identify Activators of 5'UTR Stem-Loop Driven Prion Protein mRNA Translation in H4-C Neuroglioblastoma Cells. [Related pubchem assays: 1829 (Project Summary), 1814 (Primary HTS)]; format: functional
[38] = cytotoxicity toward DRD oncogenic fibroblasts, dose response, cell-based, non-viral oncogenic, luminescence (AID 1934); format: functional; conditions: Homo sapiens
[39] = test system: T-cell; assay: inhibitors of CD8+ T cell–vesicle binding, dose response, mouse 2C CD8+ T cells, flow cytometry (AID 485284); format: functional

T1 sequence (P98170 whole entry): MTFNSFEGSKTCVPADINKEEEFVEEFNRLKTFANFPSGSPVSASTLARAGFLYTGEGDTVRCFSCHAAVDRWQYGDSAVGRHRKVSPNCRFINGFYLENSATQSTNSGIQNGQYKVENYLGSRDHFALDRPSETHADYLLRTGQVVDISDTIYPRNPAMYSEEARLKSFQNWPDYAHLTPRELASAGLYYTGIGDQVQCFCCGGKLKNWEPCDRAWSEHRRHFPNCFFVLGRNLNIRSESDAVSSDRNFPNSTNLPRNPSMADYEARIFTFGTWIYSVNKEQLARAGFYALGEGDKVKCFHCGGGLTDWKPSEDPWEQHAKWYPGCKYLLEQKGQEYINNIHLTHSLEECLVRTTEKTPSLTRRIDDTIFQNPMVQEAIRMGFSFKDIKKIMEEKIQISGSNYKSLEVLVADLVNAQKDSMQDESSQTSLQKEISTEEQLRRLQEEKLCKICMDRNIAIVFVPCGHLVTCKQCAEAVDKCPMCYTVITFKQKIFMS
Chain of Alkaline phosphatase, placental type (P05187 whole entry): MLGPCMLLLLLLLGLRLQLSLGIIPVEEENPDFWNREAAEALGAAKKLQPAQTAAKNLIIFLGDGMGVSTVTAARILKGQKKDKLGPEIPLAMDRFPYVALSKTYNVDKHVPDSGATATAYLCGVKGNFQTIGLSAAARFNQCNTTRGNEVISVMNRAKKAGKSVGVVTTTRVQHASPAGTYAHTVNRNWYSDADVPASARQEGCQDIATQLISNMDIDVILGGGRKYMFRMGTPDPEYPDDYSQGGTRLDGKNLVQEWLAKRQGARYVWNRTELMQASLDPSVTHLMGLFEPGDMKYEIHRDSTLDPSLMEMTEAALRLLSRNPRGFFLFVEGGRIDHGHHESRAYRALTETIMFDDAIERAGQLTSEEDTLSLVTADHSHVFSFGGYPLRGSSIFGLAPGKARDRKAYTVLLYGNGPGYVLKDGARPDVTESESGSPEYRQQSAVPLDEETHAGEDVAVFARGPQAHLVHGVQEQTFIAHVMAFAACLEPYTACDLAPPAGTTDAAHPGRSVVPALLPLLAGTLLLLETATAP
Chain of Beta-galactosidase (Q8VNN2 whole entry): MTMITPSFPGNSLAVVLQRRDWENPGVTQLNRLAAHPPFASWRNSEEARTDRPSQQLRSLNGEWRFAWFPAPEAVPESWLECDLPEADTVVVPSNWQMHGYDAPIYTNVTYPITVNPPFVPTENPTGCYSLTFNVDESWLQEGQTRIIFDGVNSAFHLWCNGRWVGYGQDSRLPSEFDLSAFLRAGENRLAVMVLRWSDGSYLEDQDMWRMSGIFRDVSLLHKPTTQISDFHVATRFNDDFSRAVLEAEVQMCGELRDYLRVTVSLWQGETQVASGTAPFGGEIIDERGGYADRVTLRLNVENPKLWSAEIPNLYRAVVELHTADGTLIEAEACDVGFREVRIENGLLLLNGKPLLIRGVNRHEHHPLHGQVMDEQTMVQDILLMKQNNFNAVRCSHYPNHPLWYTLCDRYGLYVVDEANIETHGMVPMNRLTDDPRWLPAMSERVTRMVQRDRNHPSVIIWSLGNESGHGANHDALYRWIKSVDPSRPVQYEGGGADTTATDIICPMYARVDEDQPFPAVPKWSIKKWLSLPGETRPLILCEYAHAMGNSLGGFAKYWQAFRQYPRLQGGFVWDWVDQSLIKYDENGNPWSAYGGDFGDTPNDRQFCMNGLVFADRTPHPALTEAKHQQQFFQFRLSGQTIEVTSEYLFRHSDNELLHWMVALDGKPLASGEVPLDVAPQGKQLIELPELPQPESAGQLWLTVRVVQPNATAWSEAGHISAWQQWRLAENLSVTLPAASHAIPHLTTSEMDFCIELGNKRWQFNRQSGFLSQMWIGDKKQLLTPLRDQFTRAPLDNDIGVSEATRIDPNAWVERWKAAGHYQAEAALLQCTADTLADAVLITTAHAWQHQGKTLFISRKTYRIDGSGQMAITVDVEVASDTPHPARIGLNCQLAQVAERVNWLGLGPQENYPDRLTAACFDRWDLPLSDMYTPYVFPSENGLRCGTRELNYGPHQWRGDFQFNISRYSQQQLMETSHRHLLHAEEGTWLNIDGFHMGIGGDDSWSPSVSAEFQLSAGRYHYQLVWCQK
Chain of NACHT, LRR and PYD domains-containing protein 1 (Q9C000 1-1212 limits assumed): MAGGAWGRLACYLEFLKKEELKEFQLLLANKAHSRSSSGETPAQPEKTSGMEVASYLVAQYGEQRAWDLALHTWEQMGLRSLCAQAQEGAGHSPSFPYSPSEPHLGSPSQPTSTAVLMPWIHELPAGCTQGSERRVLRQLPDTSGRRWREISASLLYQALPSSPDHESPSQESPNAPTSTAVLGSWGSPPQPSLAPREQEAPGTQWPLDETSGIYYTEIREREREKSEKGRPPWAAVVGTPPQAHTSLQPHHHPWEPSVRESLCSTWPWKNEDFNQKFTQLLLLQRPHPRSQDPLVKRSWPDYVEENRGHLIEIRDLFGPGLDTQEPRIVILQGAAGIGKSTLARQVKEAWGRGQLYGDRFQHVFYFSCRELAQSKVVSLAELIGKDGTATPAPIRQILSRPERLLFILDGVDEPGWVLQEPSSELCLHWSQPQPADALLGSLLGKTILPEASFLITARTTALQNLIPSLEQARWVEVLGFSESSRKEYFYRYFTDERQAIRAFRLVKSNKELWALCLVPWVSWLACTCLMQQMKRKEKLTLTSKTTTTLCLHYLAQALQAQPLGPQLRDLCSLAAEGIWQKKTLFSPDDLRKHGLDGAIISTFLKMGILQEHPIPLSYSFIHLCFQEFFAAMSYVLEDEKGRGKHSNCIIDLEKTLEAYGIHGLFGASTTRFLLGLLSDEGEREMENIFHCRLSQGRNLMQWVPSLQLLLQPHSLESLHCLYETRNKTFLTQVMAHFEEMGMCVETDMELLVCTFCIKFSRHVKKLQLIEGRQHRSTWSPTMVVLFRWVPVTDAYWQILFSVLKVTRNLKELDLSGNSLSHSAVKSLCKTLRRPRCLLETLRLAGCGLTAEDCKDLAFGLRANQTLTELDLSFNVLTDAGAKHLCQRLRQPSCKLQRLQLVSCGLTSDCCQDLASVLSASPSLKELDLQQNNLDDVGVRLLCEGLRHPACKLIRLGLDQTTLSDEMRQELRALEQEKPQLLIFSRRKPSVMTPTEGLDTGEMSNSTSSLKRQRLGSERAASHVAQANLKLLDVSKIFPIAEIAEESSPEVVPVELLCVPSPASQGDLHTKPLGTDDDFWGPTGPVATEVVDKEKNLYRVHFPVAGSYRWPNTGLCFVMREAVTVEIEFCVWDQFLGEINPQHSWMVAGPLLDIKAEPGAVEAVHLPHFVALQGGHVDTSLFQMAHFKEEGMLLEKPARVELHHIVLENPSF
Chain of NACHT, LRR and PYD domains-containing protein 1 (Q9C000 1213-1473 limits assumed): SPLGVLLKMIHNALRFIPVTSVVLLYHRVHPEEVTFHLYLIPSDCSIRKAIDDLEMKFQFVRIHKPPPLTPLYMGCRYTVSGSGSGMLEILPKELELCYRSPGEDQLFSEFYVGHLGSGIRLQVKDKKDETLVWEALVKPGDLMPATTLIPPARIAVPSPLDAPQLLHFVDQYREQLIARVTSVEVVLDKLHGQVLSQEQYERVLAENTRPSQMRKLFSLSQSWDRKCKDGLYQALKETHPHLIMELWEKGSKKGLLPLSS
Chain of G-protein coupled receptor 55 (Q9Y2T6 whole entry): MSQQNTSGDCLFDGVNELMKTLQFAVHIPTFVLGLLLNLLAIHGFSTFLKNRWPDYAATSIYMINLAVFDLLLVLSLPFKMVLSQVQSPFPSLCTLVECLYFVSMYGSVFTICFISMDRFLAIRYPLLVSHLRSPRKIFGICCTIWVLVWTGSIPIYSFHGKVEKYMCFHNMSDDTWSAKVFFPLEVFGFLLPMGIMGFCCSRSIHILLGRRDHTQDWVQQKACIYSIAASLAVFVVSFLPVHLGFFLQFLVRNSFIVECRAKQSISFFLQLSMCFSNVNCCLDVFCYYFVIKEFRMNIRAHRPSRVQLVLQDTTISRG
Chain of CAAX prenyl protease 2 (Q03530 whole entry): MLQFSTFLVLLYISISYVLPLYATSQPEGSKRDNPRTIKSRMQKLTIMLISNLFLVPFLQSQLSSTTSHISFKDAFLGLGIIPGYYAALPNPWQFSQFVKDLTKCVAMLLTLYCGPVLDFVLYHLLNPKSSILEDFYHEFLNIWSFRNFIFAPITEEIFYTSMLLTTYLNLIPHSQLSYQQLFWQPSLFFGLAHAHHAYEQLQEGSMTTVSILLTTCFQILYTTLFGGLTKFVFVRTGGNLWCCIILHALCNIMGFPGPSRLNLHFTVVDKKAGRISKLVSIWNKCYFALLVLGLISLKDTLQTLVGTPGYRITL
Chain of Glucose-6-phosphate 1-dehydrogenase (P11413 whole entry): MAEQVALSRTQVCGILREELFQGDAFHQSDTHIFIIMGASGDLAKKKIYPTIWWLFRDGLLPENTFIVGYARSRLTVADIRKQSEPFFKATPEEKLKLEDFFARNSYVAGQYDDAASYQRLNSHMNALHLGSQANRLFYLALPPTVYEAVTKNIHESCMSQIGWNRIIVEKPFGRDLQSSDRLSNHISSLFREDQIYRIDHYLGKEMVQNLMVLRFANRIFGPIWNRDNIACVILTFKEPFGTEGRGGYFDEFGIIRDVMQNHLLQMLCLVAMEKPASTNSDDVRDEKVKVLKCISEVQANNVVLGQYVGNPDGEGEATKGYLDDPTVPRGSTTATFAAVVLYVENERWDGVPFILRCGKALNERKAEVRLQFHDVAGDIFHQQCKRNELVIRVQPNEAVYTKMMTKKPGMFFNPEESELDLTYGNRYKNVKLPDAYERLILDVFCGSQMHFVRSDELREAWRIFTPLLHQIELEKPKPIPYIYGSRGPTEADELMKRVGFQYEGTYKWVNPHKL
Chain of Trypsin (P00761 whole entry, the tested form may be a part): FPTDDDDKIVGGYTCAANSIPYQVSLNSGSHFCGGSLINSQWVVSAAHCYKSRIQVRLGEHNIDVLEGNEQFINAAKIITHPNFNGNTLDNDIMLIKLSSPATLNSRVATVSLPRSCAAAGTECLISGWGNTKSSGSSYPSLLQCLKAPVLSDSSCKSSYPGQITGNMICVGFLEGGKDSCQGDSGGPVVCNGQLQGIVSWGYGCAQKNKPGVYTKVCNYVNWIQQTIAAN

## Cc1cc(C)c(OCC(=O)Nc2nc(-c3ccccn3)cs2)c(C)c1
[1]
  EC50: 2.75 µM (active)
[2]
  EC50: 8.87 µM (active)
[3]
  EC50: 5.71 µM (active)
[4]
  IC50: > 66.6 µM (inactive)
[5]
  IC50: 10 µM (active)
[6]
  EC50: 2.47 µM (active)

## O=C(NC12CC3CC(CC(C3)C1)C2)N1CCN(c2ncccn2)CC1
[7]
  AC50: 81.5 µM (active)
[8]
  AC50: 210 µM (active)

## CCOc1ccccc1NC(=O)C1=C(C)NC(=S)NC1c1cccs1 (stereo not drawn)
[9]
  IC50: > 100 µM (not active)
[10]
  IC50: > 100 µM (inactive)

## CC1=C(C(=O)O)N2C(=O)C(NC(=O)CCCC(=O)O)C2SC1 (stereo not drawn)
[11]
  IC50: > 56.8 µM (not active)
[12]
  IC50: > 50 µM (inactive)

## COc1ccc2c(C)cc(SCC(=O)Nc3ccc(Cl)cn3)nc2c1
[9]
  IC50: > 100 µM (not active)
[10]
  IC50: > 100 µM (inactive)

## COc1ccc(C2CC(c3ccccc3)=NN2C(=O)c2ccc(Cl)c([N+](=O)[O-])c2)cc1 (stereo not drawn)
[2]
  EC50: 32.6 µM (active)
[13]
  AC50: 26.1 µM (active)
[14]
  AC50: 77.7 µM (active)

## CCN(C(=O)COC(=O)c1cccnc1Nc1cccc(C(F)(F)F)c1)C1CCS(=O)(=O)C1 (stereo not drawn)
[15]
  IC50: > 100 µM (inactive)
[16]
  IC50: > 100 µM (inactive)

## CC1=NOC(=O)/C1=C\c1ccc(-c2cccc(Cl)c2)o1
[17]
  EC50: 11.8 µM (active)
[18]
  EC50: 14.5 µM (active)
[4]
  IC50: > 66.6 µM (inactive)
[19]
  AC50: 5.36 µM (active)
[20]
  IC50: 8.52 µM (active)

## COc1ccc(-n2c(SCC(=O)c3ccc(O)c(O)c3)nnc2-c2ccc(C)cc2)cc1
[21]
  IC50: > 100 µM (inactive)
[22]
  IC50: 5.84 µM (active)

## CCC1(C)CC(C(N)=S)CCO1 (stereo not drawn)
[23]
  IC50: 33.2 µM (active)
[24]
  IC50: > 80 µM (inactive)

## Cc1cccc(-c2nc3c(c(SCC(=O)c4ccc(O)c(O)c4)n2)CCCC3)c1
[21]
  IC50: 78.5 µM (active)
[22]
  IC50: > 100 µM (inactive)

## COC(=O)C1CC23C=CCN4CCC5(c6ccccc6NC15C2C)C43 (stereo not drawn)
[25]
  EC50: 0.134 µM (active)
[26]
  EC50: 2.28 µM (active)
[27]
  EC50: 7.37 µM (inconclusive)
[28]
  EC50: 7.37 µM (active)
[29]
  EC50: 1.07 µM (active)
[30]
  EC50: 4.2 µM (active)
[31]
  EC50: 1.07 µM (inconclusive)
[32]
  EC50: 0.612 µM (active)
[33]
  EC50: 7.77 µM (active)
[34]
  EC50: 0.574 µM (inconclusive)
[35]
  EC50: < 0.104 µM (active)
[36]
  EC50: 1.13 µM (active)
[37]
  EC50: 1.13 µM (inconclusive)
[38]
  EC50: 0.495 µM (active)

## COC(=O)c1ccccc1NC(=O)C1CCN(C(=O)c2cc(OC)cc(OC)c2)CC1
[39]
  EC50: 0.641 µM (active)

## CCOC(=O)c1cc(C#N)c(Oc2ccc(F)cc2)nc1-c1ccccc1
[20]
  IC50: 3.03 µM (active)

## CC(=O)O[C@@]12CO[C@@H]1C[C@H](O)[C@@]1(C)C(=O)[C@H](O)C3=C(C)[C@@H](OC(=O)[C@H](O)[C@@H](NC(=O)c4ccccc4)c4ccccc4)C[C@](O)([C@@H](OC(=O)c4ccccc4)[C@H]21)C3(C)C
[28]
  EC50: 2.3 µM (active)
[29]
  EC50: 0.692 µM (active)
[31]
  EC50: 73.1 µM (inconclusive)
[36]
  EC50: 2.4 µM (active)
[37]
  EC50: 2.02 µM (inconclusive)

## CC(=O)c1ccc(NC(=O)Nc2ccc(Cl)cc2)cc1
[15]
  IC50: 35.9 µM (active)
[16]
  IC50: 2.98 µM (active)
